This experiment concerns the target T1, human Edg-1 receptor (Homo sapiens, UniProt P21453).
T1 construct: FLAG (N); expressed in transfected cells; membrane preparation
Nature of the experiment: GTP-γ-S assay using human Edg-1 receptors (scintillation proximity assay, CHO Flp-In cell membrane preparation). The experiment is classed as biochemical. Particulars: test compound at 10 μM; high control 10 μM S1P regarded as 100% activation; [35S]GTP-γ-S binding, triplicate; read-out: % Activation (Edg-1 receptor activation in percent of the activation by 10 μM S1P). The source says: A) GTP-γ-S Assay Using Human Edg-1 Receptors
In order to determine the Edg-1 receptor activation by the compounds of the invention, a GTP-γ-S (guanosine 5′-[thio]triphosphate) assay for G-protein coupled receptor binding based on the scintillation proximity assay principle was used, employing a cell membrane preparation from a CHO Flp-In cell line which constitutively overexpresses the human Edg-1 receptor.
The Flp-In™ expression system (Invitrogen, cat. no. K6010-01) allows the generation of stable mammalian cell lines into which the gene of interest has been integrated through homologous recombination at a specific genomic location called Flp Recombination Target (FRT) site by means of a Flp recombinase encoded by the pOG44 expression plasmid. The integration of the pcDNA5/FRT expression construct into the Flp-In host cell line genome results in the transcription of the gene of interest. The stably transfected cells become hygromycin-resistant.
One day prior to transfection, 200 000 Flp-In-CHO cells were seeded in Ham F-12 medium (Invitrogen, cat. no. 31765) supplemented with 10% fetal calf serum (FCS; Perbio Science, cat. no. SH30068.03) in a 6-well plate and incubated at 37° C./5% CO2 overnight. Using the FuGENE® 6 transfection reagent (Roche, cat. no. 11988387001), cells were cotransfected with the Flp recombinase expression plasmid pOG44 and a modified plasmid additionally containing the edg-1 gene (accession no. NM_001400) termed as pcDNA5-FRT-TO_nFLAG_DEST-EDG-1 with a 9:1 ratio. To obtain the modified pcDNA5-FRT-TO_nFLAG_DEST plasmid, the Invitrogen plasmid pcDNA5/FRT/TO (Invitrogen, cat. no. V6520-20) was adapted to the Gateway® (Invitrogen) cloning system by inserting a Gateway cassette containing attR recombination sites flanking a ccdB gene and a chloramphenicol-resistance gene (Gateway conversion system, Invitrogen, cat. no. 11828-029). In addition a FLAG tag epitope was added before the 5′ att recombination site to allow recombinant expression of N-terminally FLAG-tagged proteins.
For the transfection of one well, 1.08 μg of pOG44 and 0.12 μg of pcDNA5-FRT-TO_nFLAG_DEST-EDG-1 were mixed to 100 μl of serum-free Ham F-12 medium containing 6 μl of FuGENE® 6 transfection reagent. After 20 min of incubation, the transfection reagent/DNA complex was distributed dropwise on the cells. The cells were incubated for 24 h at 37° C. Then the cells from 3 wells were transferred to a T75 flask (Greiner Cellstar®, cat. no. 658175) containing Ham F-12 medium supplemented with 10% of FCS but without antibiotic and were incubated another 24 h. 48 h after transfection, the medium was replaced by selection medium (Ham F-12 supplemented with 10% of FCS and 300 μg/ml of hygromycin B (Invitrogen, cat. no. 10687-010)). The medium was exchanged every 2 to 3 days until a resistant population of cells had grown. […] After 2 weeks of selection, the cells were transferred into T175 flasks (Greiner Cellstar®, cat. no. 660175) and cultivated for batch production. Cells were harvested from the culture flasks by short treatment (2 to 5 min) with Accutase (PAA, cat. no. L11-007), resuspended in selection medium (see above) and centrifuged at 200×g for 5 min. The cells were resuspended in a mixture of 90% of FCS and 10% of dimethylsulfoxide and stored frozen in liquid nitrogen.
A membrane preparation was obtained by standard methods from the afore-described CHO Flp-In cell line constitutively overexpressing the human Edg-1 receptor. Briefly, the cryopreserved cells were taken in culture and grown until confluency in T175 cell culture flasks (Becton Dickinson, cat. no. 35 5001). […]
On the technique in general: In a scintillation proximity assay essentially only radioactivity close to the scintillant gives light.
T1 sequence (P21453 whole entry): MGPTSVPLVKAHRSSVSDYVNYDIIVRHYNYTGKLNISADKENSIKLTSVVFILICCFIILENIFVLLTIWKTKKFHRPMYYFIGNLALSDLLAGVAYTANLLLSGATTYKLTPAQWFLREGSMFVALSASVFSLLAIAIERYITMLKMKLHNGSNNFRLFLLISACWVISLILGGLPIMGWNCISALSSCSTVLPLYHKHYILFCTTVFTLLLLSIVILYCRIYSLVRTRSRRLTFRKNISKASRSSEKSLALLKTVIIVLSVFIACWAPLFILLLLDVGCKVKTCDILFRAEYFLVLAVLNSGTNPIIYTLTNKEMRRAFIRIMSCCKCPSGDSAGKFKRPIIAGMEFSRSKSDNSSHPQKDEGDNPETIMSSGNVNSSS
With `CCCOc1nc(Oc2ccc(Cl)c(C(F)(F)F)c2)nc2oc(-c3cc(C)c(OCC(=O)O)c(C)c3)nc12` [Example 78, {4-[5-(4-chloro-3-trifluoromethylphenoxy)-7-propoxy-oxazolo[5,4-d]pyrimidin-2-yl]-2,6-dimethylphenoxy}-acetic acid], the activation at 10 µM came out at 72%.
For `CCCOc1nc(Oc2ccsn2)nc2oc(-c3cc(C)c(OCC(=O)O)c(C)c3)nc12` [Example 27, {4-[5-(isothiazol-3-yloxy)-7-propoxy-oxazolo[5,4-d]pyrimidin-2-yl]-2,6-dimethylphenoxy}-acetic acid] the value was 109%; for `CCCOc1nc(Oc2ccc(C)cc2)nc2oc(-c3cc(C)c(OCC(=O)O)c(C)c3)nc12` [Example 31, [2,6-dimethyl-4-(7-propoxy-5-(4-methylphenoxy)-oxazolo[5,4-d]pyrimidin-2-yl)-phenoxy]-acetic acid], 72%.
To `CCCOc1nc(Oc2ccc(F)cc2Cl)nc2oc(-c3cc(C)c(OCC(=O)O)c(C)c3)nc12` [Example 61, {4-[5-(2-chloro-4-fluorophenoxy)-7-propoxy-oxazolo[5,4-d]pyrimidin-2-yl]-2,6-dimethyl-phenoxy}-acetic acid] belongs 97%.
For `CCCOc1nc(Oc2cc(F)ccc2Cl)nc2oc(-c3cc(C)c(OCC(=O)O)c(C)c3)nc12` [Example 65, {4-[5-(2-chloro-5-fluorophenoxy)-7-propoxy-oxazolo[5,4-d]pyrimidin-2-yl]-2,6-dimethylphenoxy}-acetic acid] the value was 105%; for `CCCOc1nc(Oc2cccc3c2CCC3)nc2oc(-c3cc(C)c(OCC(=O)O)c(C)c3)nc12` [Example 52, {4-[5-(indan-4-yloxy)-7-propoxy-oxazolo[5,4-d]pyrimidin-2-yl]-2,6-dimethylphenoxy}-acetic acid], 54%; for `CCCOc1nc(OC2CCC2)nc2oc(-c3cc(C)c(OCC(=O)O)c(C)c3)nc12` [Example 14, [4-(5-cyclobutoxy-7-propoxy-oxazolo[5,4-d]pyrimidin-2-yl)-2,6-dimethyl-phenoxy]-acetic acid], 88%.
With `CCOc1nc(Oc2ccccc2F)nc2oc(-c3cc(C)c(OCC(=O)O)c(C)c3)nc12` [Example 26, {4-[7-ethoxy-5-(2-fluorophenoxy)-oxazolo[5,4-d]pyrimidin-2-yl]-2,6-dimethyl-phenoxy}-acetic acid], the activation at 10 µM came out at 127%.
Turning to `CCCOc1nc(OCCC(C)C)nc2oc(-c3cc(C)c(OCC(=O)O)c(C)c3)nc12` [Example 22, {2,6-dimethyl-4-[5-(3-methyl-butoxy)-7-propoxy-oxazolo[5,4-d]pyrimidin-2-yl]-phenoxy}-acetic acid], the activation at 10 µM was determined as 92%.
To `CCCOc1nc(Oc2ccc(Cl)cc2)nc2oc(-c3cc(C)c(OCC(=O)O)c(C)c3)nc12` [Example 46, {4-[5-(4-chlorophenoxy)-7-propoxy-oxazolo[5,4-d]pyrimidin-2-yl]-2,6-dimethylphenoxy}-acetic acid] belongs 59%; to `CCCOc1nc(OC(C)CC)nc2oc(-c3cc(C)c(OCC(=O)O)c(C)c3)nc12` (stereo not drawn) [Example 20, [4-(5-sec-butoxy-7-propoxy-oxazolo[5,4-d]pyrimidin-2-yl)-2,6-dimethyl-phenoxy]-acetic acid], 80%; to `CCCOc1nc(Oc2cc(Cl)ccc2C)nc2oc(-c3cc(C)c(OCC(=O)O)c(C)c3)nc12` [Example 56, {4-[5-(5-chloro-2-methylphenoxy)-7-propoxy-oxazolo[5,4-d]pyrimidin-2-yl]-2,6-dimethyl-phenoxy}-acetic acid], 78%.
In the case of `CCCOc1nc(Oc2cccc(Cl)c2C)nc2oc(-c3cc(C)c(OCC(=O)O)c(C)c3)nc12` [Example 54, {4-[5-(3-chloro-2-methylphenoxy)-7-propoxy-oxazolo[5,4-d]pyrimidin-2-yl]-2,6-dimethyl-phenoxy}-acetic acid], the activation at 10 µM was determined as 107%.
To `CCOc1nc(Oc2cc(F)ccc2C)nc2oc(-c3cc(C)c(OCC(=O)O)c(C)c3)nc12` [Example 36, {4-[7-ethoxy-5-(5-fluoro-2-methylphenoxy)-oxazolo[5,4-d]pyrimidin-2-yl]-2,6-dimethyl-phenoxy}-acetic acid] belongs 116%; to `CCCOc1nc(Oc2cc(C)ccc2F)nc2oc(-c3cc(C)c(OCC(=O)O)c(C)c3)nc12` [Example 45, {4-[5-(2-fluoro-5-methylphenoxy)-7-propoxy-oxazolo[5,4-d]pyrimidin-2-yl]-2,6-dimethylphenoxy}-acetic acid], 67%; to `CCCOc1nc(OCCC2CC2)nc2oc(-c3cc(C)c(OCC(=O)O)c(C)c3)nc12` [Example 23, {4-[5-(2-cyclopropyl-ethoxy)-7-propoxy-oxazolo[5,4-d]pyrimidin-2-yl]-2,6-dimethyl-phenoxy}-acetic acid], 98%.
Turning to `CCCOc1nc(Oc2ccc(C(F)(F)F)cc2)nc2oc(-c3cc(C)c(OCC(=O)O)c(C)c3)nc12` [Example 68, {2,6-dimethyl-4-[7-propoxy-5-(4-trifluoromethylphenoxy)-oxazolo[5,4-d]pyrimidin-2-yl]-phenoxy}-acetic acid], the activation at 10 µM was 69%.
For `CCCOc1nc(Oc2ccc(F)c(C)c2)nc2oc(-c3cc(C)c(OCC(=O)O)c(C)c3)nc12` [Example 43, {4-[5-(4-fluoro-3-methylphenoxy)-7-propoxy-oxazolo[5,4-d]pyrimidin-2-yl]-2,6-dimethyl-phenoxy}-acetic acid] the value was 60%.
To `CCCOc1nc(OCC(C)C)nc2oc(-c3cc(C)c(OCC(=O)O)c(C)c3)nc12` [Example 12, [4-(5-isobutoxy-7-propoxy-oxazolo[5,4-d]pyrimidin-2-yl)-2,6-dimethyl-phenoxy]-acetic acid] belongs 97%; to `CCCOc1nc(O[C@@H]2CCCC[C@H]2F)nc2oc(-c3cc(C)c(OCC(=O)O)c(C)c3)nc12` (relative stereo) [Example 3, {4-[5-(trans-2-Fluoro-cyclohexyloxy)-7-propoxy-oxazolo[5,4-d]pyrimidin-2-yl]-2,6-dimethyl-phenoxy}-acetic acid], 65%; to `CCCOc1nc(Oc2cccc(Cl)c2F)nc2oc(-c3cc(C)c(OCC(=O)O)c(C)c3)nc12` [Example 63, {4-[5-(3-chloro-2-fluorophenoxy)-7-propoxy-oxazolo[5,4-d]pyrimidin-2-yl]-2,6-dimethyl-phenoxy}-acetic acid], 67%.
For `CCCOc1nc(Oc2cc(F)cc(Cl)c2)nc2oc(-c3cc(C)c(OCC(=O)O)c(C)c3)nc12` [Example 60, {4-[5-(3-chloro-5-fluorophenoxy)-7-propoxy-oxazolo[5,4-d]pyrimidin-2-yl]-2,6-dimethyl-phenoxy}-acetic acid] the value was 59%; for `CCOc1nc(Oc2cccc(F)c2)nc2oc(-c3cc(C)c(OCC(=O)O)c(C)c3)nc12` [Example 25, {4-[7-ethoxy-5-(3-fluorophenoxy)-oxazolo[5,4-d]pyrimidin-2-yl]-2,6-dimethyl-phenoxy}-acetic acid], 84%; for `CCCOc1nc(Oc2cncc(Cl)c2)nc2oc(-c3cc(C)c(OCC(=O)O)c(C)c3)nc12` [Example 48, {4-[5-(5-chloropyridin-3-yloxy)-7-propoxy-oxazolo[5,4-d]pyrimidin-2-yl]-2,6-dimethyl-phenoxy}-acetic acid], 115%.

Values taken from patent US8748436B2, “Carboxylic acid derivatives having a 2,5,7-substituted oxazolopyrimidine ring” (Sanofi, priority 2010, dated 2014).
